In patent publication US20220202912A1, “Polypeptides in Preparation of Drugs for Treatment or Prevention of Rheumatoid Arthritis” (priority 2011, published 2022):
“And” between values parts separate entries of the source, which are not always exact repeats. Equal values may be shown once. Where no end group is shown, it is not given here.

Columns and labels:
TNF-α = experiment: in vivo imaging of TNF-α expression, carrageenan-induced TNF-luc mice; design: species or system BALB/c transgenic TNF-luc mice; conditions: Adalimumab 8 mg/kg, mPEG-SC20k-HM-3 20 mg/kg sc
Procedure: At 8 time points, hour 0, hour 2, hour 4, hour 8, hour 12, hour 24, hour 48 and hour 72 after modeling, fluorescein is injected intraperitoneally into each group of mice. After the mice are lightly anesthetized with ether, the mice are fixed within 5-20 min and put into an in vivo imager, the imager is covered with an instrument lid, on-fluro and om-photo names in the desktop imaging interface of the computer are clicked, and the expose button is clicked to complete the fluorescence and white light photos of mice in vivo imaging. The specific imaging principle, operation steps, image processing and output are the same as those in the previous embodiment.
In vivo imaging results of mice are processed with Carestream Molecular Imaging Software 5.3, and the luminous area is used as the determination of results. The fluorescence areas of the groups after optimization are compared.
(1) Imaging principle: Fluorescein substrate is injected intraperitoneally, and binds to luciferase carried on TNF-α protein to catalyze luminescence. Through the Luciferase fluorescent reporter group on TNF, the change of the fluorescence area in mice is observed, and the expression of TNF-α is evaluated, so as to evaluate the impact of mPEG-SC20k-HM-3 on the expression of TNF-α.
(2) Operation steps: Start the Carestreama in vivo imager, open the MI software, click the Capture button, and set photographing conditions. In the on-flour fluorescence mode, set the parameters X Binning. 2 pixels, Y Binning. 2 pixels; Illumination Source: Multi-wavelength; f-stop: 2.50; field of view (FOV) (mm): 120; focal plane (mm): Tray. Excitation filter: 430 nm, emission filter: 535 nm; exposure time: 30s. Click the Expose button to photograph fluorescence. Under the om-photo name, set the parameters X Binning. 0 pixels, Y Binning. 0 pixels; Illumination Source: None; f-stop: 2.50; FOV (mm): 120; focal plane (mm): Tray. Excitation filter: 0 nm, emission filter: 0 nm; exposure time: 0.175 s. Click the Expose button to photograph white light.
(3) Image processing and output: Analyze and adjust photos of fluorescence function imaging and white light structure imaging to the best, and the FOV is consistent. Click Window→Tie, Display→Invert, Image Display→overlay→Transparency for image stacking. In the image output process, in a navigation panel, click Annotation→Width/Heigh→Scale Analysis Image for setting, click Add Annotation Bar for adding a title, click Add Intensity Scale for adding a ruler, and set Horizontal, Size, Style, Number of Significant Dig, and Horizontal/Vertical Length. Output a picture in Tiff format.

[1] = tested on: AIA transgenic TNF-luc mice; experiment: adjuvant-induced arthritis in transgenic TNF-luc mice (swelling, scores, weight, HE staining); assay type: in vivo, BALB/c transgenic TNF-luc mice; design: right ankle swelling / left ankle swelling / left toe swelling / right toe swelling / changes of weight (added value): unit not given here; conditions: Adalimumab 8 mg/kg
Procedure: 8 animals are randomly divided into 4 groups (n=2), a normal group, a model group, a positive drug group and a test group. On day 0, the initial left and right ankle thicknesses, initial left and right foot palm thicknesses and initial left and right toe thicknesses of each group of mice are measured. On day 0, 50 μL/mouse complete Freund's adjuvant is injected into the bottom of the left toe of each group of mice, and the treatment is started after secondary inflammation appears in the right foot of each group of mice on day 17. On day 17, the normal group and the model group are hypodermically injected with 0.9% normal saline (0.2 mL/20 g of body weight), once every 2 days, 7 times in total. The positive drug Adalimumab group is hypodermically injected with Adalimumab (8 mg/kg of body weight), once every 15 days, once in total. The test group is hypodermically injected with mPEG-SC20k-HM-3 (20 mg/kg of body weight), once every 2 days, 7 times in total. The treatment lasts for 15 days. Then, medication is stopped for observation for one week, and the mice are killed one week later.
On day 0, the initial ankle widths, foot palm widths and toe thicknesses of left and right feet are measured with a vernier caliper as initial values. Every 2 days, the left and right ankle widths, foot palm widths and toe thicknesses of each group of mice are measured separately with the vernier caliper, and compared with the initial values to calculate the changes in the swelling degree.
The joints of the mouse paw are observed with naked eyes, and the joints are scored every 2 days from day 17. Scoring is performed in terms of level 0 to level 4, 5 levels in total.
After the secondary inflammation appears, systemic scoring is performed every 2 days.
Changes of expression of TNF-α and IL-6 are analyzed by HE staining and immunohistochemistry in the ankle joint, spleen and thymus of the mice. Observation and photographing are performed under the FOVs of ×200 and ×400 times respectively, 5 FOVs are taken randomly for each picture, and data statistics is performed.

[2] = 0 d, before treatment (starts day 17), mPEG-SC20k-HM-3 20 mg/kg groups
[3] = 1 d, before treatment (starts day 17), mPEG-SC20k-HM-3 20 mg/kg groups
[4] = 3 d, before treatment (starts day 17), mPEG-SC20k-HM-3 20 mg/kg groups
[5] = 6 d, before treatment (starts day 17), mPEG-SC20k-HM-3 20 mg/kg groups
[6] = 9 d, before treatment (starts day 17), mPEG-SC20k-HM-3 20 mg/kg groups
[7] = 12 d, before treatment (starts day 17), mPEG-SC20k-HM-3 20 mg/kg groups
[8] = 16 d, before treatment (starts day 17), mPEG-SC20k-HM-3 20 mg/kg groups
[9] = 17 d (treatment starts), mPEG-SC20k-HM-3 20 mg/kg sc
[10] = 19 d, mPEG-SC20k-HM-3 20 mg/kg sc
[11] = 22 d, mPEG-SC20k-HM-3 20 mg/kg sc
[12] = 25 d, mPEG-SC20k-HM-3 20 mg/kg sc
[13] = 28 d, mPEG-SC20k-HM-3 20 mg/kg sc
[14] = 31 d, mPEG-SC20k-HM-3 20 mg/kg sc

mPEG-SC20k-Ile-Val-Arg-Arg-Ala-Asp-Arg-Ala-Ala-Val-Pro-Gly-Gly-Gly-Gly-Arg-Gly-Asp ({mPEG‑SC 20k}-IVRRADRAAVPGGGGRGD) [polypeptide III, No. 3]
Fluorescence intensity (in vivo imaging) (TNF-α; 0 h): 10.851 ± 3.014 ×10^5
Fluorescence intensity (in vivo imaging) (TNF-α; 2 h): 13.880 ± 5.266 ×10^5
Fluorescence intensity (in vivo imaging) (TNF-α; 4 h): 11.926 ± 2.119 ×10^5
Fluorescence intensity (in vivo imaging) (TNF-α; 8 h): 19.37±3.41 ×10^5 and 19.367 ± 3.408 ×10^5
Fluorescence intensity (in vivo imaging) (TNF-α; 12 h): 18.65±9.09 ×10^5 and 18.653 ± 9.093 ×10^5
Fluorescence intensity (in vivo imaging) (TNF-α; 24 h): 12.65±2.39 ×10^5 and 12.654 ± 2.390 ×10^5
Fluorescence intensity (in vivo imaging) (TNF-α; 48 h): 14.37±6.24 ×10^5 and 14.037 ± 6.238 ×10^5
Fluorescence intensity (in vivo imaging) (TNF-α; 72 h): 13.40±1.17 ×10^5 and 13.402 ± 1.171 ×10^5
changes of weight (added value) [1, 2]: 0.00 ± 0.00
left ankle swelling [1, 2]: 0.000 ± 0.000
left foot (palm) swelling [1, 2]: 0.000 ± 0.000
left toe swelling [1, 2]: 0.000 ± 0.000
left ankle swelling [1, 3]: 0.188 ± 0.018
left foot (palm) swelling [1, 3]: 0.163 ± 0.052
left toe swelling [1, 3]: 0.255 ± 0.027
changes of weight (added value) [1, 4]: 0.27 ± 0.06
left ankle swelling [1, 4]: 0.204 ± 0.074
left foot (palm) swelling [1, 4]: 0.174 ± 0.088
left toe swelling [1, 4]: 0.225 ± 0.106
changes of weight (added value) [1, 5]: 0.28 ± 0.25
left ankle swelling [1, 5]: 0.265 ± 0.031
left foot (palm) swelling [1, 5]: 0.207 ± 0.055
left toe swelling [1, 5]: 0.261 ± 0.126
changes of weight (added value) [1, 6]: 0.40 ± 0.39
left ankle swelling [1, 6]: 0.251 ± 0.029
left foot (palm) swelling [1, 6]: 0.224 ± 0.062
left toe swelling [1, 6]: 0.260 ± 0.156
changes of weight (added value) [1, 7]: 0.42 ± 0.66
left ankle swelling [1, 7]: 0.265 ± 0.028
left foot (palm) swelling [1, 7]: 0.228 ± 0.054
left toe swelling [1, 7]: 0.303 ± 0.103
changes of weight (added value) ([1]; 15 d, before treatment (starts day 17), mPEG-SC20k-HM-3 20 mg/kg groups): 0.67 ± 1.06
left ankle swelling [1, 8]: 0.274 ± 0.020
left foot (palm) swelling [1, 8]: 0.221 ± 0.041
left toe swelling [1, 8]: 0.294 ± 0.092
right ankle swelling [1, 8]: 0.024 ± 0.011
right foot palm swelling [1, 8]: 0.007 ± 0.007
right toe swelling [1, 8]: 0.015 ± 0.021
joint index score [1, 9]: 7.50 ± 0.70
whole body (systemic) score [1, 9]: 5.50 ± 0.70
changes of weight (added value) [1, 10]: 0.97 ± 1.09
left ankle swelling [1, 10]: 0.297 ± 0.005
right ankle swelling [1, 10]: 0.019 ± 0.009
right foot palm swelling [1, 10]: 0.010 ± 0.011
changes of weight (added value) [1, 11]: 0.82 ± 0.57
left ankle swelling [1, 11]: 0.252 ± 0.006
right foot palm swelling [1, 11]: 0.003 ± 0.016
changes of weight (added value) [1, 12]: 0.61 ± 0.72
left ankle swelling [1, 12]: 0.219 ± 0.013
left toe swelling [1, 12]: 0.292 ± 0.107
right toe swelling [1, 12]: 0.015 ± 0.027
changes of weight (added value) [1, 13]: 1.13 ± 0.18
right ankle swelling [1, 13]: 0.021±0.013
changes of weight (added value) [1, 14]: 1.15 ± 0.40
left toe swelling [1, 14]: 0.270 ± 0.127
HE staining of ankle joints: pathological symptoms vs model group ([1]; mPEG-SC20k-HM-3 20 mg/kg): relieved to some extent
